The record followed here is patent US9718816B2, “1-phenoxy-3-(alkylamino)-propan-2-ol derivatives as CARM1 inhibitors and uses thereof” (Epizyme, Inc., priority 2013, dated 2017).

For test [1], the system named is asymmetric di-methyl PABP1 in RKO cells. The test is described as follows: RKO methylation assay (In Cell Western, asymmetric di-methyl PABP1). Type of test: cell-based. The conditions noted are these: Homo sapiens, 48 hours incubation, read-out: Cellular IC50. The source says:
RKO adherent cells were purchased from ATCC (American Type Culture Collection), Manassas, Va., USA. DMEM/Glutamax medium, penicillin-streptomycin, heat inactivated fetal bovine serum, 0.05% trypsin and D-PBS were purchased from Life Technologies, Grand Island, N.Y., USA. Odyssey blocking buffer, 800CW goat anti-rabbit IgG (H+L) antibody, and Licor Odyssey infrared scanner were purchased from Licor Biosciences, Lincoln, Nebr., USA. Asymmetric di-methyl PABP1 antibody was purchased from Cell Signaling Technology, Danvers, Mass., USA. Methanol was purchased from VWR, Franklin, Mass., USA. 10% Tween 20 was purchased from KPL, Inc., Gaithersburg, Md., USA. Paraformaldehyde (PFA) was purchased from EM Sciences. DRAQ5 was purchased from Biostatus Limited, Leicestershire, UK. […]
Calculations. First, the ratio for each well was determined by:
Each plate included fourteen control wells of DMSO only treatment (minimum inhibition) as well as fourteen control wells for maximum inhibition treated with 20 μM of a reference compound. The average of the ratio values for each control type was calculated and used to determine the percent […] for each test well in the plate. […]
Percent inhibition was determined and IC50 curves were generated using triplicate wells per concentration of compound.

The target of another test is T1, CARM1 (Homo sapiens, UniProt Q86X55).
T1 construct: Flag-CARM1-His; made in house; host or cells: HEK 293F cells infected with recombinant baculovirus (pFastBacMam)
T1 sequence (Q86X55 1-585 isoform Q86X55-1): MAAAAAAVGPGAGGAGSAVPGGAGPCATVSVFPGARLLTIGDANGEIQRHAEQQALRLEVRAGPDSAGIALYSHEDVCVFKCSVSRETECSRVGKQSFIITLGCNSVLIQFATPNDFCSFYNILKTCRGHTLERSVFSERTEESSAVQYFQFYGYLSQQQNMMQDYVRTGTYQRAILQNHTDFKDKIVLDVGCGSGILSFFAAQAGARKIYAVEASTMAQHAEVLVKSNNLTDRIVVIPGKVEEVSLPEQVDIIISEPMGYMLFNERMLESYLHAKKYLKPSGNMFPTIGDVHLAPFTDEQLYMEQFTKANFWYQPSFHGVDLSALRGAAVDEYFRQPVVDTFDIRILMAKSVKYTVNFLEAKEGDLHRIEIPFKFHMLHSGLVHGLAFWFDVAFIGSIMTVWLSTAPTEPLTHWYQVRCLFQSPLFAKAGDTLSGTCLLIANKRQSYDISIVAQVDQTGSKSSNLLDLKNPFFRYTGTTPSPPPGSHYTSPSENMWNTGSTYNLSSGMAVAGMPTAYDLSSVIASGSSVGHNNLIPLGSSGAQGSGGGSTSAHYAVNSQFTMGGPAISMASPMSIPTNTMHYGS
The test is described as follows: CARM1 enzyme assay on peptide substrate (3H-SAM Flashplate). The conditions noted are these: CARM1 0.25 nM, 3H-SAM 30 nM, peptide 250 nM, 30 min preincubation; read-out: Biochem IC50. It is filed as biochemical. The source says:
S-adenosylmethionine (SAM), S-adenosylhomocysteine (SAH), bicine, Tween20, dimethylsulfoxide (DMSO), bovine skin gelatin (BSG), sodium butyrate and Tris(2-carboxyethyl)phosphine hydrochloride solution (TCEP) were purchased from Sigma-Aldrich at the highest level of purity possible. ^3H-SAM was purchase from American Radiolabeled Chemicals with a specific activity of 80 Ci/mmol. 384-well streptavidin Flashplates were purchased from PerkinElmer.
Peptide representative of human histone H3 residues 16-30 was synthesized with an N-terminal linker-affinity tag motif and a C-terminal amide cap by 21^St Century Biochemicals. The peptide was purified by high-performance liquid chromatography (HPLC) to greater than 95% purity and confirmed by liquid chromatography mass spectrometry (LC-MS). The sequence was Biot-Ahx-[…]-amide and contained a monomethylated arginine at position 26 (SEQ ID NO.:1).
Human CARM1 (PRMT4) (NM_199141.1) transcript clone was amplified from an HEK 293 cDNA library, incorporating a flanking 5′ sequence encoding a FLAG tag ([…]) (SEQ ID NO.:2) fused directly to Ala 2 of CARM1 and 3′ sequence encoding a hexa His sequence ([…]) (SEQ ID NO.:3) fused directly to Ser 608. The gene sequence encoding isoform1 containing a deletion of amino acids 539-561 was amplified subsequently and subcloned into pFastBacMam (Viva Biotech). Protein Expression
Recombinant baculovirus were generated according to Bac-to-Bac kit instructions (Life Technologies). Protein over-expression was accomplished by infecting exponentially growing HEK 293F cell culture at 1.3×10^6 cell/ml with virus (MOI=10) in the presence of 8 mM sodium butyrate. Infections were carried out at 37° C. for 48 hours, harvested by centrifugation, and stored at −80° C. for purification.
Column was washed with 500 mM NaCl in buffer A and Flag-CARM1-His was eluted with 200 ug/ml FLAG peptide in buffer A. Pooled fractions were dialyzed in 20 mM Tris, 150 mM NaCl, 5% glycerol and 1 mM DTT, pH 7.8. The purity of recovered protein was 94.
General Procedure for CARM1 Enzyme Assays on Peptide Substrates
The assays were all performed in a buffer consisting of 20 mM Bicine (pH=7.6), 1 mM TCEP, 0.005% BSG, and 0.002% Tween 20, prepared on the day of use. Compounds in 100% DMSO (1 ul) were spotted into a polypropylene 384-well V-bottom plates (Greiner) using a Platemate Plus outfitted with a 384-channel head (Thermo Scientific). DMSO (1 ul) was added to Columns 11, 12, 23, 24, rows A-H for the maximum signal control and 1 ul of SAH, a known product and inhibitor of CARM1, was added to columns 11, 12, 23, 24, rows I-P for the minimum signal control. A cocktail (40 ul) containing the CARM1 enzyme was added by Multidrop Combi (Thermo-Fisher). The compounds were allowed to incubate with CARM1 for 30 min at room temperature, then a cocktail (10 ul) containing ^3H-SAM and peptide was added to initiate the reaction (final volume=51 ul). The final concentrations of the components were as follows: CARM1 was 0.25 nM, ^3H-SAM was 30 nM, peptide was 250 nM, SAH in the minimum signal control wells was 1 mM, and the DMSO concentration was 2%. The assays were stopped by the addition of non-radiolabeled SAM (10 ul) to a final concentration of 300 uM, which dilutes the ^3H-SAM to a level where its incorporation into the peptide substrate is no longer detectable. 50 ul of the reaction in the 384-well polypropylene plate was then transferred to a 384-well Flashplate and the biotinylated peptides were allowed to bind to the streptavidin surface for at least 1 hour before being washed once with 0.1% Tween20 in a Biotek ELx405 plate washer. The plates were then read in a PerkinElmer TopCount plate reader to measure the quantity of ^3H-labeled peptide bound to the Flashplate surface, measured as disintegrations per minute (dpm) or alternatively, referred to as counts per minute (cpm). […]

Structures are written as SMILES.

Broadly, the IC50 is the midpoint of a concentration-inhibition curve. Regarding `CNCC(O)COc1cc(OC)cc(-c2cc(N3CCOCC3)n3ncc(C4CC4)c3n2)c1` (stereo not shown) [Example 18-6], the IC50 in test [1] fell in the range of 5000 to 10000 nM.
With `CNCC(O)COc1cccc(-c2cc(N(C)C3CCOCC3)c3cnn(C(C)C)c3n2)c1` (stereo not shown) [Example 40-1], the IC50 on CARM1 fell in the range of 100 to 1000 nM.
The same measure, in the same setting: the value for `CNCC(O)COc1cccc(-c2cc(NCCCNC(=O)c3cccnc3)c3cnn(C(C)C)c3n2)c1` (stereo not shown) [Example 59-1] was 100 to 1000 nM.
On the same count and under the same terms, next, `CNCC(O)COc1cccc(-c2cc(N(C)c3ccccn3)c3cnn(C(C)C)c3n2)c1` (stereo not shown) [Example 33-1]: 100 to 1000 nM; `CNCC(O)COc1cccc(-c2cc(NCc3cnc4ccccn34)c3cnn(C(C)C)c3n2)c1` (stereo not shown) [Example 53-1]: < 100 nM; `CNCC(O)COc1cccc(-c2cc(NCCCNC(=O)c3ccn(C)n3)c3cnn(C(C)C)c3n2)c1` (stereo not shown) [Example 60-1]: 100 to 1000 nM.
The same measure, in the same setting: the value for `CC(C)n1ncc2c(NCc3cccnc3)cc(-c3cccc(OCC(O)CN)c3)nc21` (stereo not shown) [Example 25-1] was 3000 to 10000 nM; that for `CC(C)n1ncc2c(NC(=O)NC3CCOCC3)cc(-c3cccc(OCC(O)CN)c3)nc21` (stereo not shown) [Example 49-1] was 100 to 1000 nM.
With `CC(C)n1ncc2c(NCC3CCOCC3)cc(-c3cccc(OCC(O)CN)c3)nc21` (stereo not shown) [Example 30-1], the IC50 at CARM1 is < 100 nM.
Same read-out and setting: next, `CNCC(O)COc1cccc(-c2cc(NCCCCNC(=O)c3cccnc3)c3cnn(C(C)C)c3n2)c1` (stereo not shown) [Example 61-1]: 100 to 1000 nM.
As for `CNC(=O)Nc1cc(-c2cccc(OCC(O)CN)c2)nc2c1cnn2C(C)C` (stereo not shown) [Example 8-1], at CARM1, the IC50 was 100 to 1000 nM.
For `CC(C)n1ncc2c(N3CCOCC3)cc(-c3cccc(OCC(O)CN)c3)nc21` (stereo not shown) [Example 11-1], the IC50 at CARM1 was in the range of 100 to 1000 nM.
Still for that read-out and setting: the value for `CC(C)n1ncc2c(NCc3cccc(O)c3)cc(-c3cccc(OCC(O)CN)c3)nc21` (stereo not shown) [Example 35-1] was 100 to 1000 nM; that for `CC(C)n1ncc2c(NC(=O)OCc3ccccc3)cc(-c3cccc(OCC(O)CN)c3)nc21` (stereo not shown) [Example 51-1] was < 100 nM.
The same measure, in the same setting: the value for `CNCC(O)COc1cccc(-c2cc(NCc3c(C)cc(C)nc3OC)c3cnn(C(C)C)c3n2)c1` (stereo not shown) [Example 57-1] was 100 to 1000 nM.
As for `CNCC(O)COc1cccc(-c2cc(Nc3ccccn3)c3cnn(C(C)C)c3n2)c1` (stereo not shown) [Example 24-1], the IC50 on CARM1 lay in the range of 100 to 1000 nM.
Still for that read-out and setting: the value for `CNCC(O)COc1cccc(-c2cc(N(C)Cc3ccccn3)c3cnn(C(C)C)c3n2)c1` (stereo not shown) [Example 44-1] was 100 to 1000 nM; that for `COC(=O)Nc1cc(-c2cccc(OCC(O)CN)c2)nc2c1cnn2C(C)C` (stereo not shown) [Example 10-1] was 100 to 1000 nM; that for `CNCC(O)COc1cccc(-c2cc(NC(=O)NC)c3cnn(C(C)C)c3n2)c1` (stereo not shown) [Example 13-1] was < 100 nM.
